# Legend:
# [1] = tested on: human neonatal fibroblast cells (NFFs); experiment: Western blot of signalling molecules in human neonatal fibroblasts; format: cell-based; conditions: 10 or 30 ng/mL
# Protocol: The Western Blot method was used to identify effects of Compounds 1 and 42 on proteins relevant to would repair and healing in human neonatal fibroblast cells (NFFs). Two studies were conducted. In the first study; NFFs were treated with either 10 or 30 ng Compound 1/mL for 6 or 24 hours, before harvesting and protein extraction. In the second study NFFs were treated individually with 30 ng/mL concentrations of Compounds 1 and 42 respectively for 6 hours. The resulting lysates from both studies were subjected to western blot analysis, and probing with specific antibodies to key signalling molecules involved in wound repair and healing.
# The medium from adherent human neonatal fibroblasts grown in 75 cm^2 plates was removed and the cells were washed twice in ice cold PBS. The attached cells were harvested in 10 mL of ice cold PBS using a cell scraper (Costar, Corning) pelleted by centrifugation for 5 min (1,500 rpm, RTemp), resuspended in 1 mL of ice-cold PBS, and transferred to a 1.5 mL microfuge tube.
# The cells were collected by centrifugation (13,200 rpm, RTemp, 2 s), the PBS removed and the pellets stored at −20° C. until required.
# The frozen pellets were thawed on ice, and resuspended in a volume of cell lysis buffer 3-4 times the volume of the pellet by pipetting up and down. The cell suspension was sonicated 60 s at 4° C. and centrifuged for 20 min (13,200 rpm, 4° C.) and the […] containing the protein transferred to a fresh 1.5 ml microfuge tube. The protein was stored at −20° C.
# Protein samples were diluted 1/10 and 1/20 (v/v) in MilliQ water and 10 μL was plated out in duplicate in. a flat-bottomed 96-well plate (Costar®, Corning). Stock solutions of bovine serum albumin (BSA) were prepared at 100, 200, 400, 600, 1,000, and 1,200 μg/mL and 10 μL/well plated out in duplicate and assayed alongside the samples. […] The raw absorbances were read at A590 nm on a microplate reader (VERSAmax, Molecular Devices) and a standard curve produced using SOFTmax PRO software (Molecular Devices). […]
# [2] = tested on: TGF-β1-stimulated dermal fibroblasts; experiment: Differentiation of adult dermal fibroblasts into myofibroblasts (α-SMA expression); format: cell-based, human
# Protocol: The effects of Compounds […] and 37 on dermal fibroblast differentiation to myofibroblasts was examined by the extent of α-SMA expression by TGF-βi-stimulated dermal fibroblasts.
# Following trypsinization, fibroblasts were seeded in 8-well, Permanoxchamber slides (VWR International) in DMEM medium, containing antibiotics, 2 mM L-glutamine and 10% foetal calf serum (250 μL, all purchased from Invitrogen); at a cell density of 2.5×10^4 cells/well and maintained at 37° C. in 5% CO2/95% air for 48 h.
# At 48 hr, fibroblasts were growth-arrested in serum-free DMEM for 48 hr and then replaced with serum-free DMEM (250 μL), containing Compounds 1 or 37 at concentrations of 0, 0.001, 0.01, 0.1, 1.0 and 10.0 μg/mL (3 wells/concentration/compound) and TGF-β1 (10 ng/ml, Peprotech). Fibroblasts were maintained at 37° C. in 5% CO2/95% air for 72 hr.
# At 72 hr, chamber slide wells were washed with PBS (×1, 250 μL) and fixed in 4% paraformaldehyde (100 μL/well) for 10 min. The chamber slide wells were then washed again with PBS (×1, 250 μl), treated with 0.1% Triton X-100 in PBS (100 μL, Sigma) for 5 min and re-washed with PBS (×1, 250 μL). Wells were blocked with 1% BSA in PBS (250 μL, Sigma) for 1 h and washed (×3) in 0.1% BSA/PBS.
# Wells were incubated with monoclonal mouse anti-human α-SMA, clone 1A4 (1:100, 150 ul, Sigma) at 4° C. overnight, washed (×6) in 0.1% BSA/PBS and incubated with Alexa Fluor 488 goat anti-mouse IgG antibody (1:1000, 250 μL, Invitrogen), at room temperature for 1 h, under darkness. Chamber slides were washed (×6) in 0.1% BSA/PBS and counterstained with Hoescht 33258 solution for 30 min under darkness (1:2000, 250 μL, Sigma). Chamber were subsequently removed for slides and treated with Fluorsave (Santa Cruz) for 10 min under darkness. Slides were viewed by fluorescence microscopy (Leica Microsystem), with digital images being capturedat ×200 magnification. Digital images were processed using HC Image J Software.
smiles,measurement,setting,value
"CC=C(C)C(=O)OC1C(C)C2(O)C(C3OC3(CO)C(O)C3(O)C(=O)C(C)=CC32)C2C(C)(C)C12OC(=O)C(C)CC (stereo not drawn) [Compound 1, 12-tigloyl-13-(2-methylbutanoyl)-6,7-epoxy-4,5,9,12,13,20-hexahydroxy-1-tigliaen-3-one]",levels of MMP9 (Western blot),[1]; 6 or 24 hours,No difference
same,activation of MEK1/2 and ERK/2 (Western blot),[1]; 6 hours,transient activation
same,activation of MEK1/2 and ERK/2 (Western blot),[1]; 24 hours,down-regulation of activation
same,differentiation of TGF-β1-treated adult dermal fibroblasts into myofibroblasts,"[2]; 0.001 to 10.0 μg/mL, 72 hr",affected differentiation into myofibroblasts in a concentration-dependent manner
same,α-SMA stress fibre formation and polygonal cellular morphology (myofibroblast differentiation),"[2]; TGF-β1 10 ng/ml, 72 hr, 0.1 μg/mL",lacked the α-SMA stress fibre formation and the typical polygonal cellular morphology
same,myofibroblast morphology,[2]; between 1 and 10 μg/mL,subtle alterations in myofibroblast morphology

# Reference: US10822317B2, “Methods and compositions for wound healing” (QBiotics Limited, priority 2013, dated 2020)
